The source of these data is patent US11008603B2, “Method and kit for detecting pathogenic microorganism” (JAPAN SCIENCE AND TECHNOLOGY AGENCY, priority 2016, dated 2021).

A short description of data set [1]: Test Example 1: influence of pH value of hydrophilic solvent on fluorescence detection of 4-MU in droplets covered with FC40. The class given is physicochemical. The settings on record: 50 μM 4-MU, 33 mM DEA-HCl, 4 mM CaCl2; buffer pH set higher than pKa (pH 8 or more) within pH 6.5 to 9.0; FC40 cover. From the text: According to the following procedure, the influence of the pH value of a hydrophilic solvent on detection sensitivity was studied.
First, according to a report by Kim et al. (“Quantifying genetically inserted fluorescent protein in single iPS cells to monitor Nanog expression using electroactive microchamber arrays”, Lab on Chip, 2014, Issue 4, Vol. 14, and p. 730-736), a droplet array device (DAD) was produced. A cover glass (24 mm×32 mm) was washed and dried. The cover glass was then spin-coated with an amorphous fluorine resin (CYTOP 816AP, AGC Inc.), and fired at 180° C. for 1 hour. The cover glass coated with the amorphous fluorine resin was spin-coated with a positive type photoresist (AZ-4903, AZ Electronic Materials), fired at 55° C. for 3 minutes, and then further fired at 110° C. for 5 minutes. The cover glass was subjected to photolithography by use of a photomask having holes each having a diameter of 3 μm at intervals of 5 μm. The cover glass was dry-etched with oxygen plasma, and then washed to obtain as the DAD. […]
With a CMOS camera (Neo sCMOS, Andor) connected to a fluorescence microscope (IX8, OLYMPUS), a fluorescent image of each of the droplets was photographed to measure fluorescence intensity. […] The fluorescent image was analyzed with an imaging analysis software (Meta-Morph, Molecular Devices), to calculate fluorescence intensity.

For data set [2] the following is noted: cited from earlier work.
Data set [3] in a line: Test Example 2: influence of buffering substance (DEA) concentration on fluorescence intensity of 4-MU in droplets covered with FC40 over time. Type of data set: physicochemical. The settings on record: 4 mM CaCl2, pH 6.5, 50 μM 4-MU. Here is the method: According to the following procedure, the influence of the concentration of a buffering substance of a hydrophilic solvent on detection sensitivity was studied. 4-MU was dissolved in a concentration of 50 μM in a buffer solution (4 mM CaCl2, pH 6.5) having a DEA concentration adjusted to 25 mM to 1M. Into the array, 30 μL of the buffer solution in which 4-MU was dissolved was introduced, to fill each of the wells with the buffer solution (see FIG. 1A). Then, into the array, 200 μL of a hydrophobic solvent (FC40) was introduced, to form a droplet of the hydrophilic solvent covered with the hydrophobic solvent in each of the wells. Time-lapse photographing was performed under a fluorescence microscope to measure fluorescence intensity of each of the droplets.

With `Cc1cc(=O)oc2cc(O)ccc12` [4MU, 4-methylumbelliferone], the “fluorescence detection sensitivity in droplet (distribution/leakage to FC40)” value in data set [1] is on record as “detected with higher sensitivity”. The “acid dissociation constant (pKa)” value in data set [2] is listed as 7.79. For the same compound, the “fluorescence intensity over time” value is recorded as “decrease in the fluorescence intensity was observed” in data set [3] (DEA 25 mM) and “maintained” in data set [3] (DEA 50 mM, for 10 minutes). The “decrease in the fluorescence intensity over time” value is given as “significantly suppressed” in data set [3] (DEA 100 mM, for 30 minutes); “significantly suppressed” in data set [3] (DEA 500 mM, for 30 minutes); “not observed” in data set [3] (DEA 1 M, after subtraction of fading due to exposure).

Regarding `O=c1ccc2nc3ccc(O)cc3oc-2c1` [resorufin], in data set [2], the “acid dissociation constant (pKa)” value is recorded as 6.0.

Consider `CCN(CC)c1ccc2c(-c3ccccc3C(=O)O)c3ccc(=[N+](CC)CC)cc-3oc2c1.[Cl-]` [rhodamine], for which the “acid dissociation constant (pKa)” value in data set [2] was 6.0.

With fluorescein, the “acid dissociation constant (pKa)” value in data set [2] is reported as 6.4.
